2 compounds from the NIST ThermoML archive (doi:10.1021/je201301b) can be followed below.

± gives the expanded uncertainty stated by the source.

For the data set the following is noted: 101.33 kPa, Liquid, Vibrating tube method.

For the compound `CCCCCCOCn1cc[n+](COCCCCCC)c1.O=S(=O)([N-]S(=O)(=O)C(F)(F)F)C(F)(F)F`, the mass density by setting is: (298.15 K) 1254.89 ± 3.9 kg/m3; (308.15 K) 1246.07 ± 3.9 kg/m3; (318.15 K) 1237.28 ± 3.8 kg/m3; (328.15 K) 1228.51 ± 3.8 kg/m3; (338.15 K) 1219.66 ± 3.7 kg/m3; (348.15 K) 1210.87 ± 3.7 kg/m3.

Consider `CCCCCCOCn1cc[n+](C)c1.F[B-](F)(F)F` [1-hexyloxymethyl-3-methylimidazolium tetrafluoroborate], for which the mass density by setting is: (298.15 K) 1153.1 ± 3.3 kg/m3; (308.15 K) 1145.76 ± 3.2 kg/m3; (318.15 K) 1138.71 ± 3.2 kg/m3; (328.15 K) 1131.65 ± 3.2 kg/m3; (338.15 K) 1124.63 ± 3.1 kg/m3; (348.15 K) 1117.63 ± 3.1 kg/m3.

Usually mass density stands for mass per unit of volume.
